What all share (format): biochemical
One assay deals with JAK2 (Homo sapiens (Human), UniProt O60674). In words: JAK2 Inhibition Assay (Example C, Omnia kinase fluorescence peptide substrate assay). The note with it: JAK2 Enzyme IC50 1 mM ATP, averaged IC50 ranges. Put shortly: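 4 nM JAK2 with 1 mM ATP and 10 μM Omnia Y7 peptide in 25 mM HEPES pH 7.4, 10 mM MgCl2, 0.01% Triton X-100, 1 mM DTT, 2% DMSO. Sox fluorescence (ex 360/em 485 nm) read every 50 s for 45 min; IC50 from 4-parameter fit of percent of control.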

The target in another assay is Human Tyk2 kinase domain (Homo sapiens (Human), UniProt P29597). In words: Tyk2 Inhibition Assay (Example A, Omnia kinase fluorescence peptide substrate assay). The settings on record: TYK2 Enzyme IC50 1 mM ATP, averaged IC50 ranges. Put shortly:
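Omnia Sox-peptide kinetic fluorescence assay (ex 360/em 485 nm, read every 50 s for 45 min) with 1 nM human Tyk2 kinase domain (aa 886–1187, His tag cleaved, baculovirus-expressed), 1 mM ATP, 8 μM Omnia Y12 peptide, in 25 mM HEPES pH 7.4, 10 mM MgCl2, 0.01% Triton X-100, 1 mM DTT, 2% DMSO. IC50 from 4-parameter logistic fit of percent of control.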

Another assay concerns the target JAK3 (Homo sapiens (Human), UniProt P52333). Description: JAK3 Inhibition Assay (Example D, Omnia kinase fluorescence peptide substrate assay). An outline of the steps: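 Mixture held 2 nM JAK3, 1 mM ATP and 10 μM Omnia Y7 peptide in 25 mM HEPES pH 7.4, 10 mM MgCl2, 0.01% Triton X-100, 1 mM DTT, 2% DMSO final. Sox fluorescence (ex 360/em 485 nm) was read every 50 s for 45 min. IC50 came from a 4-parameter logistic fit of percent of control.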

The target of a further assay is JAK1 (Homo sapiens (Human), UniProt P23458). Description: JAK1 Inhibition Assay (Example B, Omnia kinase fluorescence peptide substrate assay). An outline of the steps: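 Recombinant human JAK1 (12.5 nM) with 1 mM ATP and 8 μM Omnia Y12 Sox-peptide in 25 mM HEPES pH 7.4, 10 mM MgCl2, 0.01% Triton X-100, 1 mM DTT, 2% DMSO final. Phosphorylation read kinetically (ex 360/em 485 nm, 45 min); IC50 from 4-parameter fit of percent of control.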

From patent publication US10189845B2, “4,6-substituted-pyrazolo[1,5-a]pyrazines as janus kinase inhibitors” (ARRAY BIOPHARMA INC., priority 2014, dated 2019) come the findings set out here.

Where two headings read alike, the source gives them in different places.

Chain of JAK2 (O60674 whole entry): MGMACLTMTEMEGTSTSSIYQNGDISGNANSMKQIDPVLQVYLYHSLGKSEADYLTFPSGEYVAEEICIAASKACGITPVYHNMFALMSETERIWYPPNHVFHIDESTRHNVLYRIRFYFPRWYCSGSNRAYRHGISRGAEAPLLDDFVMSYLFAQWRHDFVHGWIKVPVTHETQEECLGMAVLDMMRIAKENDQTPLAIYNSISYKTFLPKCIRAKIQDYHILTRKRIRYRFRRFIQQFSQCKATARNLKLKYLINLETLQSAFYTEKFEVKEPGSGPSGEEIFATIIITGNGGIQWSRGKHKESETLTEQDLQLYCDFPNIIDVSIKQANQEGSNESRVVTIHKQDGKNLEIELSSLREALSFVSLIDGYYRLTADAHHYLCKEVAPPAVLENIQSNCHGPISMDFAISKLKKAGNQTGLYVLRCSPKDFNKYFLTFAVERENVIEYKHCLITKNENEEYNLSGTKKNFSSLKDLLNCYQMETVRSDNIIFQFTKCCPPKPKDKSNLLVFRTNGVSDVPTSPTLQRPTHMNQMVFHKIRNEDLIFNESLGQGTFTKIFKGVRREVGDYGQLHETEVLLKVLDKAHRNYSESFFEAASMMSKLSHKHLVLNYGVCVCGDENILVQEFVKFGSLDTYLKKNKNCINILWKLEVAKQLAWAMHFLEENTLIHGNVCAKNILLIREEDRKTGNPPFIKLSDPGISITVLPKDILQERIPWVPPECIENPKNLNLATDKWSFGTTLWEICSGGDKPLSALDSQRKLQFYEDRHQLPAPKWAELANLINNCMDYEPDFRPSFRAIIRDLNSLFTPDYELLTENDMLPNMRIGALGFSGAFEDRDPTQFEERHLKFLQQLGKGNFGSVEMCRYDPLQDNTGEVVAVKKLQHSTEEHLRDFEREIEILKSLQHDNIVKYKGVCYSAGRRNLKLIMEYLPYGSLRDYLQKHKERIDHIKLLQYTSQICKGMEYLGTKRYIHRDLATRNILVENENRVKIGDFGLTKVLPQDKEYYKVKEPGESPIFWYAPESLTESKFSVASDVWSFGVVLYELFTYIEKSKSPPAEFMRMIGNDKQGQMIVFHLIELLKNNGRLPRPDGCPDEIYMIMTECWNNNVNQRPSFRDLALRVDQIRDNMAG
Chain of JAK1 (P23458 whole entry): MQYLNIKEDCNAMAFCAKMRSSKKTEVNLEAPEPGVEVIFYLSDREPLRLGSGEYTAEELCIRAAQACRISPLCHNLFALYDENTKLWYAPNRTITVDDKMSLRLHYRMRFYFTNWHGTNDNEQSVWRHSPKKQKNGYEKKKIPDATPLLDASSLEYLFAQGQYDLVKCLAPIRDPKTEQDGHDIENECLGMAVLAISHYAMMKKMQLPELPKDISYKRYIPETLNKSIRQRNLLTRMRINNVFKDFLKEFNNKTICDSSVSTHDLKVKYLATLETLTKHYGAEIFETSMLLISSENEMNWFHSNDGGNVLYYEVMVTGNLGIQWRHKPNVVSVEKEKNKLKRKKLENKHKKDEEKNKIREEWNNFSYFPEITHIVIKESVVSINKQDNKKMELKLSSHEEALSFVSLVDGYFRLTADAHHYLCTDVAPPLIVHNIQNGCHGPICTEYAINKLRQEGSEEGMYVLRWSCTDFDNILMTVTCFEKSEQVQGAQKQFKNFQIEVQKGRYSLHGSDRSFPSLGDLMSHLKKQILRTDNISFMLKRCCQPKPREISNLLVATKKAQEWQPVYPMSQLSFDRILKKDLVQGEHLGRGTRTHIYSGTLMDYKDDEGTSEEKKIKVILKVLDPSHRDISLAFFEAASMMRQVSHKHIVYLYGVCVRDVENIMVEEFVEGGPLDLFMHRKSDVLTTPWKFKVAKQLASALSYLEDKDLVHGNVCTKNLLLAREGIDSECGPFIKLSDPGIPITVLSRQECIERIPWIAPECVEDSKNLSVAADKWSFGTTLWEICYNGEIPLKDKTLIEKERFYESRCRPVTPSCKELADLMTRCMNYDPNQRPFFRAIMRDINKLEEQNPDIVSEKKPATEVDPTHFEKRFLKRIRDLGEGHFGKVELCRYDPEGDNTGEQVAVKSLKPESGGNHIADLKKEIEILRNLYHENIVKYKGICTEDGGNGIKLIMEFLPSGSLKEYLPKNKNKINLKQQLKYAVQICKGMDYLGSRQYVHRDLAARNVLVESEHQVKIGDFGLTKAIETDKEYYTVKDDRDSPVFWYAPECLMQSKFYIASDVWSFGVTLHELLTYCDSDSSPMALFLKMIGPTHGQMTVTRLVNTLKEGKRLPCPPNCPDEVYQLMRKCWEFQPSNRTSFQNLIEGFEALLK
Chain of JAK3 (P52333 whole entry): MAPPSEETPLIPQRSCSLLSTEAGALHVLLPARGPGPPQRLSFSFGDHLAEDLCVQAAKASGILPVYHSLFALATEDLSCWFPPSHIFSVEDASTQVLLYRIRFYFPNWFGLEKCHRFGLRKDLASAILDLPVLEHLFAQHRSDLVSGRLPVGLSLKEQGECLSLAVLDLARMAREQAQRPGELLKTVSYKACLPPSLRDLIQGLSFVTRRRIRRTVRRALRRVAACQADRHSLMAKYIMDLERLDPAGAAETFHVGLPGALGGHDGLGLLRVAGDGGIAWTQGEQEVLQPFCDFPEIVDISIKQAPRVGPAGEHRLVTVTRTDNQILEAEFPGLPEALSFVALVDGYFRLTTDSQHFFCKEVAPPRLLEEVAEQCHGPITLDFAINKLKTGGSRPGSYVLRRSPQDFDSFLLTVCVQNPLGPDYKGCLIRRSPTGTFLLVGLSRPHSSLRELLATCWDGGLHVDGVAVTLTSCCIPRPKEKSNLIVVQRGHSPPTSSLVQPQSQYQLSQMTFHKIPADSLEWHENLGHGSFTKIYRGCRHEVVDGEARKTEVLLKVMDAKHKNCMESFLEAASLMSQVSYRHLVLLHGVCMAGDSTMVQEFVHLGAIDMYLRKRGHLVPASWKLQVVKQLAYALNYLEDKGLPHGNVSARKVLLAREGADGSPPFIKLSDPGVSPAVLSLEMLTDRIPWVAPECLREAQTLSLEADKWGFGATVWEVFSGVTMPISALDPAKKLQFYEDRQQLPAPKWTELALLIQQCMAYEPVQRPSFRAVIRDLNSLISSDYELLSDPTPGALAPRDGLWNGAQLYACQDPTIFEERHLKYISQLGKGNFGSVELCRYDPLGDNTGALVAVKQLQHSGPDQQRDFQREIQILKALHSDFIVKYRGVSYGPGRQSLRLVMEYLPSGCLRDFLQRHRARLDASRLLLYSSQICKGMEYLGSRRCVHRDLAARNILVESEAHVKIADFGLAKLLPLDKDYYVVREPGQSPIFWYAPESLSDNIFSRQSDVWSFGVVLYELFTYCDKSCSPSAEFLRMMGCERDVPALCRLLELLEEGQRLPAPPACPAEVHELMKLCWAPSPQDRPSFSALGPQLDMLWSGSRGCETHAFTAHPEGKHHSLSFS
Chain of Human Tyk2 kinase domain (P29597 886-1187): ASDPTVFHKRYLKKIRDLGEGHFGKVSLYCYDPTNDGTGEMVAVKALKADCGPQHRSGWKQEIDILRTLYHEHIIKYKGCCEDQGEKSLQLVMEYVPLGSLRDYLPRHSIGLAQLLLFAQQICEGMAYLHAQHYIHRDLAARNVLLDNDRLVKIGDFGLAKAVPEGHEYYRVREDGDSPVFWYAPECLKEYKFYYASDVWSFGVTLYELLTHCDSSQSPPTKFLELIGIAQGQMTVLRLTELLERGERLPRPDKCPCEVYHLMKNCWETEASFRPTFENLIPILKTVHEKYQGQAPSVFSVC

As for `CCC(CC)n1cc(-c2nc(-c3cnn(C[C@@H](C)O)c3)cn3nccc23)cn1` [Example 109, (R)-1-(4-(4-(1-(pentan-3-yl)-1H-pyrazol-4-yl)pyrazolo[1,5-a]pyrazin-6-yl)-1H-pyrazol-1-yl)propan-2-ol], the IC50 (in general, the concentration that inhibits the measured activity by half) was in the range of 1 to 10 µM at JAK2, 0.1 to 1 µM on Human Tyk2 kinase domain, 1 to 10 µM against JAK3 and 1 to 10 µM against JAK1.

Turning to `CCC(CC)n1cc(-c2nc(-c3cnn(C[C@H](C)O)c3)cn3nccc23)cn1` [Example 110, (S)-1-(4-(4-(1-(pentan-3-yl)-1H-pyrazol-4-yl)pyrazolo[1,5-a]pyrazin-6-yl)-1H-pyrazol-1-yl)propan-2-ol], the IC50 is 0.01 to 0.1 µM at JAK2, 0.01 to 0.1 µM at Human Tyk2 kinase domain, 1 to 10 µM at JAK3 and 0.1 to 1 µM at JAK1.

For the compound `CCC(CC)n1cc(-c2nc(-c3cnn(CC(O)CC(F)(F)F)c3)cn3nccc23)cn1` (stereo not drawn) [Example 111, 4,4,4-trifluoro-1-(4-(4-(1-(pentan-3-yl)-1H-pyrazol-4-yl)pyrazolo[1,5-a]pyrazin-6-yl)-1H-pyrazol-1-yl)butan-2-ol], the IC50 was in the range of 0.01 to 0.1 µM against JAK2, 0.01 to 0.1 µM against Human Tyk2 kinase domain, 1 to 10 µM against JAK3 and 0.1 to 1 µM against JAK1.

For the compound `CCC(CC)n1cc(-c2nc(-c3cnn(CC(O)C(C)(C)C)c3)cn3nccc23)cn1` (stereo not drawn) [Example 112, 3,3-dimethyl-1-(4-(4-(1-(pentan-3-yl)-1H-pyrazol-4-yl)pyrazolo[1,5-a]pyrazin-6-yl)-1H-pyrazol-1-yl)butan-2-ol], the IC50 fell in the range of 0.1 to 1 µM against JAK2, 0.1 to 1 µM against Human Tyk2 kinase domain, 1 to 10 µM on JAK3 and 1 to 10 µM against JAK1.

On to `CCC(CC)n1cc(-c2nc(-c3cnn(CC(O)C(C)C)c3)cn3nccc23)cn1` (stereo not drawn) [Example 113, 3-methyl-1-(4-(4-(1-(pentan-3-yl)-1H-pyrazol-4-yl)pyrazolo[1,5-a]pyrazin-6-yl)-1H-pyrazol-1-yl)butan-2-ol], for which the IC50 lay within 0.1 to 1 µM against JAK2, 0.01 to 0.1 µM against Human Tyk2 kinase domain, 1 to 10 µM at JAK3 and 1 to 10 µM against JAK1.

As to `CCC(CC)n1cc(-c2nc(-c3cnn(C[C@@H](O)CC)c3)cn3nccc23)cn1` [Example 114, (S)-1-(4-(4-(1-(pentan-3-yl)-1H-pyrazol-4-yl)pyrazolo[1,5-a]pyrazin-6-yl)-1H-pyrazol-1-yl)butan-2-ol], the IC50 was 0.01 to 0.1 µM against JAK2, 0.01 to 0.1 µM against Human Tyk2 kinase domain, 1 to 10 µM at JAK3 and 0.1 to 1 µM against JAK1.

Turning to `CCC(CC)n1cc(-c2nc(-c3cnn(C[C@H](O)CC)c3)cn3nccc23)cn1` [Example 115, (R)-1-(4-(4-(1-(pentan-3-yl)-1H-pyrazol-4-yl)pyrazolo[1,5-a]pyrazin-6-yl)-1H-pyrazol-1-yl)butan-2-ol], the IC50 is 0.01 to 0.1 µM at JAK2, 0.01 to 0.1 µM on Human Tyk2 kinase domain, 1 to 10 µM on JAK3 and 0.1 to 1 µM against JAK1.

Turning to `CCC(CC)n1cc(-c2nc(-c3cnn(CC4(O)CCOCC4)c3)cn3nccc23)cn1` [Example 116, 4-((4-(4-(1-(pentan-3-yl)-1H-pyrazol-4-yl)pyrazolo[1,5-a]pyrazin-6-yl)-1H-pyrazol-1-yl)methyl)tetrahydro-2H-pyran-4-ol], the IC50 at JAK2 was in the range of 0.01 to 0.1 µM; against Human Tyk2 kinase domain, 0.01 to 0.1 µM; at JAK3, 1 to 10 µM; on JAK1 (JAK1 Enzyme IC50 1 mM ATP, 1 mM ATP, averaged IC50 ranges) it was 1 to 10 µM.

As for `CCC(CC)n1cc(-c2nc(-c3cnn(CC(C)(C)O)c3)cn3nccc23)cn1` [Example 117, 2-methyl-1-(4-(4-(1-(pentan-3-yl)-1H-pyrazol-4-yl)pyrazolo[1,5-a]pyrazin-6-yl)-1H-pyrazol-1-yl)propan-2-ol], the IC50 on JAK2 lay within 0.1 to 1 µM; against Human Tyk2 kinase domain, 0.1 to 1 µM; at JAK3 it was 1 to 10 µM; at JAK1 it was 0.1 to 1 µM.
